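1) Cells in 96-well plates. 2) Compound, 48 h, 5 concentrations. 3) Linear interpolation between surrounding doses. 4) Unreached endpoint = highest concentration. GI50: concentration for 50% inhibition of growth. TGI marks complete inhibition of growth.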
These molecules were tested on MALME-3M melanoma (assay: NCI anticancer screen, dose series, 48 h).

SMILES | TGI | GI50
COc1ccc2c(c1)[nH]c1c(/C=C/c3ccccc3)nccc12 | 31.5 µM | –
Clc1cc2c(cc1Cl)CC(NCCN1CCCC1)CC2 (stereo unspecified) | 22.8 µM | –
[N-]=[N+]=CC(=O)c1ccccc1C#CCCc1ccccc1 | 79.1 µM | –
CCN(CC(=O)O)C(=O)c1cccnc1 | > 100 µM | –
NCCSC(c1ccccc1)c1ccccc1 | 37.1 µM | –
CCCCCCCCC/C=C/C=C/C(=O)NCC(=O)NC1C(O)C(O)C(Nc2ncnc3nc[nH]c23)OC1C(O)CO (stereo unspecified) | 0.381 µM | 0.00446 µM
COc1nc(C#CC2(O)CCCCC2)nc(OC)n1 | 15.3 µM | –
C[C@H](CCC(=O)O)[C@H]1CC[C@@]2(C)[C@@H]3C(=O)C[C@H]4C(C)(C)[C@@H](O)CC[C@]4(C)[C@H]3C(=O)C[C@]12C | > 100 µM | –

What follows are molecules tested on MDA-MB-435 (assay: NCI anticancer screen, dose series, 48 h).

SMILES | TGI | GI50
CCOC(=O)C1=NN(c2ccc(C)cc2)C2=CC(C)=NN(C)C(=S)N21 | > 100 µM | –
O=C(c1cccs1)N(C(=S)OC12CC3CC(CC(C3)C1)C2)c1ccccc1 | > 100 µM | –
C(=N\NC1=NCCN1)/c1ccc(-c2cn3cc(/C=N/NC4=NCCN4)ccc3n2)cc1 | > 79.7 µM | –
CC1CC[C@@]2(OC1)OC1C[C@H]3[C@@H]4CC=C5CC(OC6OC(CO)C(OC7OC(CO)C(O)C(OC8OCC(O)C(O)C8O)C7OC7OC(CO)C(O)C(O)C7O)C(O)C6O)CCC5(C)[C@H]4CCC3(C)C1[C@@H]2C (stereo partly specified) | 13.4 µM | –
Cc1c(N2C(=O)CS(=O)(=O)C2c2cccc(Oc3ccccc3)c2)c(=O)n(-c2ccccc2)n1C (stereo unspecified) | > 100 µM | –
CCC1CN(C(=O)c2ccccc2)C(Cc2c[nH]c3ccccc23)C(=O)C1CC(=O)OC (stereo unspecified) | > 100 µM | –
CC12CC3OC(=O)C1COC14OC5(C2C1=O)C(O)(CCC1C4CC(O)C2(O)CC=CC(=O)C12C)C(=O)OC35C (stereo unspecified) | > 100 µM | –
NC(=O)c1c(NC(=O)c2ccccn2)sc2c1CCC(=O)C2 | > 100 µM | 3.22 µM
COc1ccc(C(=O)/C=C/c2cccc([N+](=O)[O-])c2)c(OC)c1 | > 50 µM | 1.76 µM
CCOC(=O)C(NC(=O)c1ccco1)(Nc1nc2ccc(OCC)cc2s1)C(F)(F)F (stereo unspecified) | 80.2 µM | –
CCC(C)C1=C(OC(C)=O)[N+]2([O-])Oc3ccc(-c4c(OC(C)=O)c(OC(C)=O)c(-c5ccc(OC(C)=O)cc5)c(OC(C)=O)c4OC(C)=O)cc3OC2(C(C)CC)C(=O)N1OC(C)=O (stereo unspecified) | > 50 µM | –
O=C(O)C1C2CCC(O2)C1C(=O)Nc1cccc2cccnc12 (stereo unspecified) | > 100 µM | –
COc1cccc2c1Cc1cc(-c3ccccc3)[n+](C)n1-2 | 25.5 µM | –
O=C(C[n+]1ccc2ccccc2c1)c1ccc2ccc3ccccc3c2c1 | 7.75 µM | –
NCCCCc1cc(O)c2c(c1O)C(=O)c1ccccc1C2=O | 43.6 µM | –
Cc1ccccc1C(=O)N/N=C/c1ccc(Sc2nccn2C)c([N+](=O)[O-])c1 | 81.1 µM | –
CC(=O)C1=C(C)N(c2ccc(C)cc2)C2(O)C=CC(=O)C3C(=O)N(c4ccccc4)C(=O)C132 (stereo unspecified) | > 100 µM | –
COc1ccc2c(c1)[nH]c1c(/C=C/c3ccccc3)nccc12 | 49 µM | –
Clc1cc2c(cc1Cl)CC(NCCN1CCCC1)CC2 (stereo unspecified) | 14.4 µM | –
CCN(CC(=O)O)C(=O)c1cccnc1 | > 100 µM | –
NCCSC(c1ccccc1)c1ccccc1 | 33.8 µM | –
CCCCCCCCC/C=C/C=C/C(=O)NCC(=O)NC1C(O)C(O)C(Nc2ncnc3nc[nH]c23)OC1C(O)CO (stereo unspecified) | 0.256 µM | –
COc1nc(C#CC2(O)CCCCC2)nc(OC)n1 | 18.8 µM | –
C[C@H](CCC(=O)O)[C@H]1CC[C@@]2(C)[C@@H]3C(=O)C[C@H]4C(C)(C)[C@@H](O)CC[C@]4(C)[C@H]3C(=O)C[C@]12C | > 100 µM | –

Each molecule was assayed on MOLT-4 leukemia (assay: NCI anticancer screen, dose series, 48 h).

SMILES | TGI | GI50
CCOC(=O)C1=NN(c2ccc(C)cc2)C2=CC(C)=NN(C)C(=S)N21 | > 100 µM | –
O=C(c1cccs1)N(C(=S)OC12CC3CC(CC(C3)C1)C2)c1ccccc1 | > 100 µM | –
C(=N\NC1=NCCN1)/c1ccc(-c2cn3cc(/C=N/NC4=NCCN4)ccc3n2)cc1 | > 37.4 µM | –
CC1CC[C@@]2(OC1)OC1C[C@H]3[C@@H]4CC=C5CC(OC6OC(CO)C(OC7OC(CO)C(O)C(OC8OCC(O)C(O)C8O)C7OC7OC(CO)C(O)C(O)C7O)C(O)C6O)CCC5(C)[C@H]4CCC3(C)C1[C@@H]2C (stereo partly specified) | 19.8 µM | –
Nc1ccccc1S(=O)(=O)c1ccccc1 | > 100 µM | –
Cc1c(N2C(=O)CS(=O)(=O)C2c2cccc(Oc3ccccc3)c2)c(=O)n(-c2ccccc2)n1C (stereo unspecified) | > 100 µM | –
COc1cc2c(ccc3c4cc(OC)c(OC)cc4c[n+](C)c23)cc1O | 19.2 µM | –
CNC(=O)OCc1c(CO)nc(SC)n1C | > 100 µM | –
CN(C)CC(CC1=C(CC(CN(C)C)N(C)C)CCC1)N(C)C (stereo unspecified) | > 100 µM | –
CCC1CN(C(=O)c2ccccc2)C(Cc2c[nH]c3ccccc23)C(=O)C1CC(=O)OC (stereo unspecified) | > 100 µM | –
CC12CC3OC(=O)C1COC14OC5(C2C1=O)C(O)(CCC1C4CC(O)C2(O)CC=CC(=O)C12C)C(=O)OC35C (stereo unspecified) | > 100 µM | –
NC(=O)c1c(NC(=O)c2ccccn2)sc2c1CCC(=O)C2 | > 100 µM | > 100 µM
O=c1cccccc1[O-].O=c1cccccc1[O-].[O]=[U+2]=[O] | 82 µM | –
COc1ccc(C(=O)/C=C/c2cccc([N+](=O)[O-])c2)c(OC)c1 | 3.88 µM | 1.17 µM
CCOC(=O)C(NC(=O)c1ccco1)(Nc1nc2ccc(OCC)cc2s1)C(F)(F)F (stereo unspecified) | > 100 µM | –
CCC(C)C1=C(OC(C)=O)[N+]2([O-])Oc3ccc(-c4c(OC(C)=O)c(OC(C)=O)c(-c5ccc(OC(C)=O)cc5)c(OC(C)=O)c4OC(C)=O)cc3OC2(C(C)CC)C(=O)N1OC(C)=O (stereo unspecified) | 29.3 µM | –
COc1cccc2c1Cc1cc(-c3ccccc3)[n+](C)n1-2 | > 100 µM | –
O=C(OCN1C(=O)C2C3C=CC(C2C1=O)C1C2C(=O)N(COC(=O)C4CCCN4)C(=O)C2C31)C1CCCN1 (stereo unspecified) | > 95.3 µM | –
O=C(C[n+]1ccc2ccccc2c1)c1ccc2ccc3ccccc3c2c1 | 2.69 µM | –
NCCCCc1cc(O)c2c(c1O)C(=O)c1ccccc1C2=O | 10.1 µM | –
Cc1ccccc1C(=O)N/N=C/c1ccc(Sc2nccn2C)c([N+](=O)[O-])c1 | > 100 µM | –
CCn1c(-c2ccc(N=NNc3ccc(-c4n[nH]c(=S)n4CC)cc3)cc2)n[nH]c1=S | 6.28 µM | –
COc1ccc2c(c1)[nH]c1c(/C=C/c3ccccc3)nccc12 | > 100 µM | –
Clc1cc2c(cc1Cl)CC(NCCN1CCCC1)CC2 (stereo unspecified) | 60 µM | –
[N-]=[N+]=CC(=O)c1ccccc1C#CCCc1ccccc1 | 40.9 µM | –
CCN(CC(=O)O)C(=O)c1cccnc1 | > 100 µM | –
NCCSC(c1ccccc1)c1ccccc1 | 42.6 µM | –
CCCCCCCCC/C=C/C=C/C(=O)NCC(=O)NC1C(O)C(O)C(Nc2ncnc3nc[nH]c23)OC1C(O)CO (stereo unspecified) | > 100 µM | 0.372 µM
COc1nc(C#CC2(O)CCCCC2)nc(OC)n1 | > 100 µM | –
C[C@H](CCC(=O)O)[C@H]1CC[C@@]2(C)[C@@H]3C(=O)C[C@H]4C(C)(C)[C@@H](O)CC[C@]4(C)[C@H]3C(=O)C[C@]12C | > 100 µM | –

What follows are molecules tested on OVCAR-3 ovarian (assay: NCI anticancer screen, dose series, 48 h).

SMILES | TGI
CCOC(=O)C1=NN(c2ccc(C)cc2)C2=CC(C)=NN(C)C(=S)N21 | > 100 µM
O=C(c1cccs1)N(C(=S)OC12CC3CC(CC(C3)C1)C2)c1ccccc1 | > 100 µM
C(=N\NC1=NCCN1)/c1ccc(-c2cn3cc(/C=N/NC4=NCCN4)ccc3n2)cc1 | > 67 µM
CC1CC[C@@]2(OC1)OC1C[C@H]3[C@@H]4CC=C5CC(OC6OC(CO)C(OC7OC(CO)C(O)C(OC8OCC(O)C(O)C8O)C7OC7OC(CO)C(O)C(O)C7O)C(O)C6O)CCC5(C)[C@H]4CCC3(C)C1[C@@H]2C (stereo partly specified) | 9.25 µM
Nc1ccccc1S(=O)(=O)c1ccccc1 | > 100 µM
Cc1c(N2C(=O)CS(=O)(=O)C2c2cccc(Oc3ccccc3)c2)c(=O)n(-c2ccccc2)n1C (stereo unspecified) | > 100 µM
COc1cc2c(ccc3c4cc(OC)c(OC)cc4c[n+](C)c23)cc1O | 54.3 µM
CNC(=O)OCc1c(CO)nc(SC)n1C | > 100 µM

Reference: PubChem BioAssay (NCI)
